Consider 10 compounds from article PMC10052652 (Molecules, 2023).

Like-named read-outs stand apart in the source and are kept apart here. Where only a bound is given, the exact number is not on record here.

The nature of experiment [1]: DPPH radical scavenging assay. The conditions noted are these: for DPPH Assay %: at 100 µM. The protocol:
DPPH• (1-1-diphenyl 2-picryl hydrazyl) assay
This method is based on the spectrophotometric assay using the stable radical, DPPH•, as a reagent. First, 20 µL of each sample (4 mg/mL) was mixed with 180 µL of 0.1 mM DPPH• in methanol, in plates, after an incubation of 25 min in the dark. Absorbance was measured at 517 nm. Ascorbic acid was used as the reference compound. The radical-scavenging activities of molecules, expressed as a percentage inhibition of DPPH•, were calculated according to the following formula: Inhibition (%) = [(A control − A sample)/A control] × 100 where A is the absorbance determined at 517 nm. The absorbance of the solvent and DPPH• radical without the molecule was measured as the control.

In another experiment the target is T1, 15-lipoxygenase (Glycine max, UniProt P08170).
T1 sequence (P08170 1-839): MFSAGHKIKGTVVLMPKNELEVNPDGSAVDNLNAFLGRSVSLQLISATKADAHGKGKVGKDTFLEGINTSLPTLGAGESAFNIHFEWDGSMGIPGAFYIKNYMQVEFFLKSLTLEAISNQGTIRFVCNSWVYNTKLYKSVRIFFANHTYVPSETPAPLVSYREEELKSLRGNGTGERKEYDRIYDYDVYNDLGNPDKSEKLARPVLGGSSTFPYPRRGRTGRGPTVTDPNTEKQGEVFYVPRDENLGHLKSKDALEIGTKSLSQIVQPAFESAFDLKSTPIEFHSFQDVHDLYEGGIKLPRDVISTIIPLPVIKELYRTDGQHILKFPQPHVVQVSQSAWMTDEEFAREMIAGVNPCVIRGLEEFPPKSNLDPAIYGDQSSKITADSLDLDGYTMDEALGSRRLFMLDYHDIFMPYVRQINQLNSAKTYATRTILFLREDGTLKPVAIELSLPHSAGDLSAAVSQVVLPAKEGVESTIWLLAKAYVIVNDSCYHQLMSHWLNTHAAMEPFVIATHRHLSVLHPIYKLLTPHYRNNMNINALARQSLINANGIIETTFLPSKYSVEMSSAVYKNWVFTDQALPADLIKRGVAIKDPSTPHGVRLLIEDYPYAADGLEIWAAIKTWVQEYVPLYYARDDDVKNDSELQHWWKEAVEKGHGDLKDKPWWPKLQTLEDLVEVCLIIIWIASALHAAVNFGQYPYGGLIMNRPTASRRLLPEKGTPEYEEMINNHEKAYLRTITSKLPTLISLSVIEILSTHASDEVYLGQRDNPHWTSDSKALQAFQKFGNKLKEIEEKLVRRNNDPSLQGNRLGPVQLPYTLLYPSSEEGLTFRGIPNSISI
Nature of the experiment: Anti-inflammatory activity (anti 15-lipoxygenase). It counts as biochemical. The settings on record: at 100 µM.

The subject of the next experiment is SKOV-3 cells. The experiment is described as follows: Cytotoxic activity, MTT assay, SKOV-3. Format: cell-based, human. In general terms: Formazan colour is commonly taken as a measure of viable cells.
The next experiment addresses T2, α-amylase (Homo sapiens, UniProt P04746).
T2 sequence (P04746 16-511): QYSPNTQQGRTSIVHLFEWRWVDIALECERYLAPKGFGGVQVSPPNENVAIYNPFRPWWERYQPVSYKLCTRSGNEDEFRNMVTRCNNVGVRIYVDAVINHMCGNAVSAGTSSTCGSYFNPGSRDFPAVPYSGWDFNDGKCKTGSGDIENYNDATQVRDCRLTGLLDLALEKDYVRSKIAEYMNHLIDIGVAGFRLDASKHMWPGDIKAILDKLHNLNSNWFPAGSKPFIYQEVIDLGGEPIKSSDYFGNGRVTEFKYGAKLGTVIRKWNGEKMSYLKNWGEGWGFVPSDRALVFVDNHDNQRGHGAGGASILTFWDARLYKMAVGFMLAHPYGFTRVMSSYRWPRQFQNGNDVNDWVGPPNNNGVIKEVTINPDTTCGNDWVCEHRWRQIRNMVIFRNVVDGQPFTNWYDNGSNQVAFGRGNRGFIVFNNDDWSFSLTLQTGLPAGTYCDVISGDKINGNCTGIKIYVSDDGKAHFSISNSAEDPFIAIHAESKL
The experiment is described as follows: Anti-α-amylase activity (starch/DNS). The settings on record: for Anti α-Amylase %: at 100 µM.

For experiment [2] the following is noted: cited from earlier work.
On the set-up of experiment [3]: method as in PMID 26504472. The conditions noted are these: tested at 147.78 µM ref 17; cited from earlier work.
Experiment [4] concerns porcine pancreas α-amylase. Also on record: method as in doi:10.15436/2377-0619.15.042. The conditions noted are these: at 1 mM, different protocols (chromogenic substrate p-nitrophenyl-α-D-maltopentaoside) ref 18; cited from earlier work.
A further experiment has as its target 12-lipoxygenase. More on the design: method as in PMID 11447334. The conditions noted are these: previous report ref 22; cited from earlier work.
The test system of another experiment is Aβ1-40-induced dementia. More on the design: method as in PMID 25274114. The settings on record: rats ref 20; cited from earlier work.
The next experiment has as its target xanthine oxidase (XOD) (Homo sapiens, UniProt P47989). Format: biochemical. The conditions noted are these: at 100 µM.
Where [5] appears, read: Homo sapiens, SK-OV-3, 72 h, read-out: IC50 SKOV-3, MTT, 72 h.

xanthine oxidase (XOD), sequence (P47989 whole entry, species assumed): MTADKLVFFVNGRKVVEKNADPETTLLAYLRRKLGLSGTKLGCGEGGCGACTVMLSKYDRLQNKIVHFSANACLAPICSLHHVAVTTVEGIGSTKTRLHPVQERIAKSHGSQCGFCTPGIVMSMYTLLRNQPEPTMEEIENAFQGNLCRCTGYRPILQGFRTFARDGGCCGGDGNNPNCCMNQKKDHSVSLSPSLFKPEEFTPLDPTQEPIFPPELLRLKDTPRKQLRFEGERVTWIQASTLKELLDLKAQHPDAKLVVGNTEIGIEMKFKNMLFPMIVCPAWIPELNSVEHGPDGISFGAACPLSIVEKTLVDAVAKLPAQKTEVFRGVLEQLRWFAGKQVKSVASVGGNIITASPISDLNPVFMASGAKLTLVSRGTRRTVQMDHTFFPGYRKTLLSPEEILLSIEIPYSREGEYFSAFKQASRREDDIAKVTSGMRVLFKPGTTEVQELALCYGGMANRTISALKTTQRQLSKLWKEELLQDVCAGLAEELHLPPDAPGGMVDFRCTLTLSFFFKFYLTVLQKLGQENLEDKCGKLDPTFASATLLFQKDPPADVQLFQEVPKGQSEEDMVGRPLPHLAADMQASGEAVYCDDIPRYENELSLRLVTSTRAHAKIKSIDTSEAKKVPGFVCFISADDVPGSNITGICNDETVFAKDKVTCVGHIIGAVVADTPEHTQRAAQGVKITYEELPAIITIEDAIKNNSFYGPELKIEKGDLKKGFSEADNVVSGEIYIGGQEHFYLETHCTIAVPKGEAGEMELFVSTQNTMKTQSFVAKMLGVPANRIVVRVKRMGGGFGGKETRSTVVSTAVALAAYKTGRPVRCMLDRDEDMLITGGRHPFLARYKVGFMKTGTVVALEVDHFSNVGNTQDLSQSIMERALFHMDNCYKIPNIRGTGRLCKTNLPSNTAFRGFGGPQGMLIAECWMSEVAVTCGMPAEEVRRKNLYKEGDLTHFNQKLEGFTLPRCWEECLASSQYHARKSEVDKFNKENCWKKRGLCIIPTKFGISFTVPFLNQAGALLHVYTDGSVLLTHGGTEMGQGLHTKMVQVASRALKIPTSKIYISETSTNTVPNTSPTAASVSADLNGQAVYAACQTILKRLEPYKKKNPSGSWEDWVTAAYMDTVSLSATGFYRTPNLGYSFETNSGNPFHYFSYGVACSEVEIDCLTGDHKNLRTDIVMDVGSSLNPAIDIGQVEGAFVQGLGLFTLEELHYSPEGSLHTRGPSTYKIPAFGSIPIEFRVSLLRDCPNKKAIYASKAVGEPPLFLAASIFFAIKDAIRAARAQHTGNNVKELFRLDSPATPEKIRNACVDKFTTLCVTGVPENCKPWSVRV

Regarding `O=c1cc(-c2ccccc2)oc2cc(O)cc(O)c12` [Molecule M1, 5,7-dihydroxyflavone], the values for the concentration for half-maximal inhibition (IC50) (in [1]; in the experiment on SKOV-3 cells (setting [5]); at α-amylase) were more than 100 µM, more than 50 µM and 36.6 ± 0.2 µM, respectively. Moreover, in experiment [1], the “DPPH Assay %” value was “not active”. The “Anti 15-Lipoxygenase %” value on 15-lipoxygenase was “ineffective”. Also, the “Anti α-Amylase %” value at α-amylase is reported as 59.7 ± 2.0%.

Regarding `COc1ccc(-c2oc3c(CC=C(C)C)c(O[C@@H]4O[C@H](CO)[C@@H](O)[C@H](O)[C@H]4O)cc(O)c3c(=O)c2O[C@@H]2O[C@@H](C)[C@H](O)[C@@H](O)[C@H]2O)cc1` [Molecule M2, Icariin], the IC50 is more than 100 µM in experiment [1], more than 50 µM in the experiment on SKOV-3 cells (setting [5]) and 14.1 ± 2.1 µM against α-amylase. Also, the “DPPH assay antioxidant activity” value in experiment [2] (tested at 147.78 µM ref 17) was 3.8 ± 1.0%. Moreover, the “ABTS assay antioxidant activity” value in experiment [3] is 14.6 ± 0.1%. Further, on α-amylase, the “Anti α-Amylase %” value is listed as 58.1 ± 2.2%.

Turning to `O=c1cc(-c2ccccc2)oc2ccc(O)cc12` [Molecule M3, 6-hydroxyflavone], the IC50 is more than 100 µM in [1]; more than 100 µM in the experiment with SKOV-3 cells (setting [5]); more than 50 µM in the experiment on SKOV-3 cells (read-out: IC50 SKOV-3, MTT, 72 h); 10.9 ± 0.1 µM on α-amylase. Also, on 15-lipoxygenase, the “Anti 15-Lipoxygenase %” value was “ineffective”. Moreover, the “porcine pancreas α-amylase inhibition” value in [4] was 4.5 ± 1.1%. Moreover, at α-amylase, the “Anti α-Amylase %” value is given as 90.3 ± 3.2%.

Turning to `O=c1cc(-c2ccccc2)oc2cccc(O)c12` [Molecule M4, 5-hydroxyflavone], the half-inhibitory concentration (IC50) was more than 100 µM in [1], more than 50 µM in the experiment on SKOV-3 cells (setting [5]) and 37.9 ± 0.8 µM against α-amylase. In addition, at 15-lipoxygenase, the “Anti 15-Lipoxygenase %” value was “ineffective”. Further, in [4], the “porcine pancreas α-amylase inhibition” value is recorded as “ineffective”. Also, the “Anti α-Amylase %” value on α-amylase was found to be 58.4 ± 1.4%.

Regarding `O=c1cc(-c2ccccc2)oc2cc(O)ccc12` [Molecule M5, 7-hydroxyflavone], the IC50 is more than 100 µM in experiment [1], more than 50 µM in the experiment with SKOV-3 cells (setting [5]) and 1.2 ± 0.1 µM at α-amylase. At 15-lipoxygenase, the “Anti 15-Lipoxygenase %” value is reported as “ineffective”. The “porcine pancreas α-amylase inhibition” value in experiment [4] is on record as 4.8 ± 3.6%. The “Anti α-Amylase %” value at α-amylase is recorded as 90.3 ± 3.2%.

For `O=c1cc(-c2ccccc2)oc2cc(O)c(O)c(O)c12` [Molecule M7, 5,6,7-trihydroxyflavone], the concentration for half-maximal inhibition (IC50) was 5.2 ± 0.2 µM in experiment [1]; 15.6 ± 0.1 µM in the experiment with SKOV-3 cells (setting [5]); 21.2 µM in experiment [2] (previous study ref 16, read-out: DPPH assay IC50); 1 µM on 12-lipoxygenase; 3.4 ± 0.1 µM against α-amylase. Also, the “DPPH Assay %” value in experiment [1] stood at 96.4 ± 0.1%. The “porcine pancreas α-amylase inhibition” value in experiment [4] is listed as 13.2 ± 2.4%. The “effect on Aβ1-40-induced dementia” value in the experiment with Aβ1-40-induced dementia is recorded as “perfected Aβ1-40-induced dementia in rats”. In addition, the “Anti α-Amylase %” value on α-amylase is given as 96.9 ± 1.7%.

`O=c1cc(-c2cc(O)cc(O)c2)oc2ccccc12` [Molecule M8, 3′,5′-dihydroxyflavone]: in experiment [1], the IC50 is more than 100 µM and the “DPPH Assay %” value worked out at 20.3 ± 4.1%. Besides, the IC50 in the experiment on SKOV-3 cells (setting [5]) is more than 50 µM. The “Anti XOD %” value on xanthine oxidase (XOD) is listed as 75.3 ± 1.6%. Moreover, at α-amylase, the midpoint of inhibition, the IC50, lay at 14.9 ± 0.3 µM and the “Anti α-Amylase %” value was 104.8 ± 3.5%.

With `O=c1cc(-c2cccc(O)c2)oc2ccc3ccccc3c12` [Molecule M9, 3′-hydroxy-b-naphthoflavone], the half-inhibitory concentration (IC50) in experiment [1] is more than 100 µM; in the experiment with SKOV-3 cells (setting [5]), more than 50 µM; at α-amylase, 2 ± 0.2 µM. Further, on α-amylase, the “Anti α-Amylase %” value came out at 86.6 ± 2.3%.

With `O=c1cc(-c2cccc(O)c2)oc2cc(O)ccc12` [Molecule M13, 7,3′-dihydroxyflavone], the half-maximal inhibitory concentration (IC50) was more than 100 µM in experiment [1], 42.1 ± 0.7 µM with SKOV-3 cells (setting [5]) and 1.4 ± 0.1 µM against α-amylase. In addition, the “Anti XOD %” value on xanthine oxidase (XOD) came to 64.2 ± 1.2%. Besides, the “Anti α-Amylase %” value at α-amylase is given as 91.7 ± 4.9%.

Regarding `COc1cc(-c2cc(=O)c3ccc4c(O)cccc4c3o2)cc(OC)c1OC` [Molecule M18, 7-hydroxy-3′,4′,5′-trimethoxy-α-naphthoflavone], the IC50 in experiment [1] was more than 100 µM; with SKOV-3 cells (setting [5]), 37.3 ± 1 µM; against α-amylase, more than 100 µM. In addition, the “DPPH Assay %” value in experiment [1] stood at 40.8 ± 0.6%. Also, the “Anti XOD %” value at xanthine oxidase (XOD) stood at 19.4 ± 1.0%.

As usually defined, the IC50 is the midpoint of a concentration-inhibition curve.
